{"source": "paper PMC12598851", "about": "“Exploiting Avidity Effects for the Discovery of Low Affinity Protein-Binding Fragments” (Journal of Medicinal Chemistry, 2025)", "key": {"Streptavidin (SA)": {"molecular_target": "T1, Streptavidin (SA) (Streptomyces avidinii, UniProt P22629)", "T1 construct": "purchased", "experiment": "SPR, soluble compound binding to immobilized streptavidin", "conditions": "soluble mini-PEG attached compound, immobilized SA; read-out: KD (SPR)", "protocol": "The SPR binding affinity testing was conducted using the BIAcore 1K system (Cytiva) with BIAcore Insight Control Software. Streptavidin (50 μg/mL in 10 mM pH 5.0 NaOAc) was immobilized on a CM5 sensor chip (Cytiva) via amide coupling, using HBS-EP+ (10 mM HEPES, 150 mM NaCl, 3 mM EDTA, and 0.05% v/v Surfactant P20) as the immobilization buffer. Approximately 1000 RU of immobilization was achieved. Testing compounds were evaluated using the multiple-cycle kinetic/affinity method in PBS-P+ running buffer (20 mM phosphate buffer, 2.7 mM KCl, 137 mM NaCl, and 0.05% Surfactant P20), with a 200 s association time, 200 s dissociation time, and a flow rate of 45 μL/min. Binding affinities for the testing compounds were determined by fitting the sensor grams to both the 1:1 binding kinetics and steady-state affinity models provided in the BIAcore Insight Evaluation Software."}, "[1]": {"tested_on": "monomeric streptavidin (mSA-647)", "experiment": "Bead pull-down with monomeric streptavidin", "type": "binding", "conditions": "mSA-647 500 nM, 1 h, PBST, room temperature", "protocol": "To investigate this, compound 2-displaying, compound 3-displaying, or blank (acetylated) beads were incubated with tetrameric SA-647 or iFluor647-conjugated monomeric streptavidin (mSA-647). Biotin-displaying beads (Figure S3) were also included in this experiment as a high-affinity comparator. […] No binding of either protein to compound 3-displaying beads was observed.\n3 Stable binding of tetrameric SA to beads displaying compound 2 is highly dependent on avidity. […] Each compound was represented by 1 million 10 μm TentaGel beads, with 250,000 beads used per technical replicate. (b) Effect of ligand functionalization density on compound binding. Beads were functionalized with compound 2, compound 3, or biotin at varying surface densities (100% to 5%) and incubated with SA-647 (500 nM) for 1 h in PBST at room temperature as previously, before recording the fluorescence intensity.\n(§1) General notes: • At each step, contents were mixed by pipetting up and down 3–5 times. • All steps following the addition of SA-647 were conducted in the dark. • SA-647 and mSA-647 were purchased from commercial sources; (SA-647: ThermoFisher cat#S3235, mSA-647: Millipore SAE178)."}, "[2]": {"molecular_target": "T2, tetrameric streptavidin (SA-647) (Streptomyces avidinii, UniProt P22629)", "T2 construct": "purchased ThermoFisher S3235", "experiment": "Bead pull-down: SA-647 retained by compound-displaying TentaGel beads, plate reader", "type": "binding", "text": "Compounds 2 and 3 were then constructed on 10 μm TentaGel beads via straightforward solid-phase synthesis, along with acetylated beads, which as a “blank” (Figure c). TentaGel beads consist of an amino-polystyrene core onto which is grafted a thick layer of amine-terminated PEG chains. An additional mini-PEG spacer was incorporated prior to coupling the compounds to further improve spatial accessibility and aqueous display of the compounds (see Experimental Section for detailed synthesis). The beads were incubated with AlexaFluor 647-conjugated SA (SA-647) in phosphate-buffered saline supplemented with 0.05% Tween 20 (PBST) for 1 h at room temperature in the dark. Following incubation, the beads were washed thoroughly (see Experimental Section for a detailed protocol), then resuspended in PBST. The amount of fluorescent SA retained by the resin was analyzed using a Tecan multiwell plate reader equipped with appropriate excitation and emission filters (excitation at 650 nm, emission at 665 nm).\nas §1\nA 96-well Multiscreen hydrophilic assay plate (MilliporeSigma, MSBVN12) was activated by treating each well with 150 μL of 70% (v/v) ethanol in water. The solvent was removed under vacuum, and the wells were washed with PBST (3 × 150 μL). Fresh PBST (150 μL) was then added to each well.\nThe plate was drained and washed again with PBST (3 × 150 μL), followed by the addition of 150 μL PBST per well. Plates were shaken overnight at ambient temperature on an orbital plate shaker.\nThe next day, wells were drained and incubated with 150 μL of a 1:1 (v/v) solution of PBST:PBS blocking buffer (Thermo Scientific, 37538) for 1 h at room temperature. After removal of the blocking buffer, 100 μL PBST was added to each well and mixed thoroughly. A 20 μL aliquot from each well was transferred to a black 384-well flat-bottom plate (Corning, 3820) for background (blank) measurements.\nThe remaining PBST was removed, and the beads were incubated with SA-647 (500 nM in 1:1 PBST/blocking buffer, 150 μL per well) for 1 h at room temperature. After incubation, wells were washed with PBST while shaking (3 × 20 min). A final 150 μL PBST wash was performed and drained. Fresh PBST (80 μL) was added to each well, and the contents were transferred to labeled PCR tubes. Samples were briefly vortexed and mixed by pipetting.\nEach sample was transferred to a black 384-well plate in triplicate (3 × 20 μL per well). The plate was sealed with a foil sticker and centrifuged at 250g for 1 min. Fluorescence intensity was measured using a TECAN plate reader. Background fluorescence (from blank wells) was subtracted prior to further data analysis."}, "[3]": {"molecular_target": "T2, tetrameric streptavidin (SA-647)", "experiment": "Bead pull-down: SA-647 retained by compound-displaying TentaGel beads, plate reader", "type": "binding", "conditions": "SA-647 50 nM, about 14,000-fold below the intrinsic KD"}, "SA-647": {"molecular_target": "T3, SA-647 (Streptomyces avidinii, UniProt P22629)", "T3 construct": "purchased ThermoFisher S3235", "experiment": "Dose-dependent binding of SA-647 to bead-displayed ligands by FACS (MFI)", "conditions": "SA-647 0.1 to 1000 nM", "protocol": "We next asked if the bead binding assay could distinguish complexes with different affinities for SA. 10 μm TentaGel beads displaying compound 2, compound 3, the oxazole analogue of compound 2 (Figure S4), or the SA-binding macrocycle 1 shown in Figure a were exposed to different concentrations of SA-647 ranging from 0.1 to 1000 nM. After washing, the intensity of fluorescence retained on the beads was measured using a flow cytometer, and the results were plotted as the mean fluorescence intensity (MFI) on the beads vs the protein concentration. […] Macrocycle 1, which binds SA with a K D of about 600 nM in solution (more than 1000 times more tightly than compound 2), binds SA-647 on resin at far lower concentrations than does compound 2."}, "[4]": {"molecular_target": "T4, biotin-binding surface of SA (Streptomyces avidinii, UniProt P22629)", "T4 construct": "purchased ThermoFisher S3235", "experiment": "Competition assay with biotin on beads", "conditions": "SA-647 500 nM pretreated with biotin 10 μM, 30 min", "protocol": "To determine if ligand 2 interacts with the biotin-binding surface of SA, we preincubated SA-647 with excess biotin and repeated the binding assay.\nThis assay was conducted following the exact same procedure described above using two samples: SA-647 (500 nM) alone, and SA-647 (500 nM) that had been pretreated with biotin (10 μM) for 30 min at room temperature. Each sample was added to separate wells of a microtiter plate."}}, "note": "Values joined by “and” are separate entries in the source; they are usually repeats but may differ in a detail not shown here. Equal entries are not always repeated. “Also recorded” adds a separate entry of the source.", "data": [{"smiles": "CC(=O)N(Cc1cccnc1)Cc1nc(C(=O)N(C)CC(=O)NCCOCCOCC(=O)NCC(N)=O)cs1", "note": "[Compound 2]", "values": [{"measurement": "Kd", "setting": "Streptavidin (SA)", "value": 706, "unit": "µM"}, {"measurement": "binding of mSA-647 to bead-displayed ligand", "setting": "[1]", "value": "did not retain detectable levels; also recorded: not observed"}, {"measurement": "Fluorescence intensity, Average", "setting": "[2]; SA-647 500 nM, 12 replicates, after background subtraction, Z' calculation", "value": 14647}, {"measurement": "binding of SA-647 to bead-displayed compound (fluorescence)", "setting": "[2]; SA-647 500 nM, 1 h, PBST, room temperature, after washing", "value": "readily detectable; also recorded: strong binding"}, {"measurement": "Fluorescence intensity, individual replicate", "setting": "[2]; SA-647 500 nM, replicates 1-12, after background subtraction, Z' calculation", "value": "15421 and 12975 and 13104 and 12492 and 14298 and 14769 and 15364 and 16337 and 17794 and 14546 and 14869 and 13797"}, {"measurement": "fluorescence after 24 h in buffer lacking protein compared with directly after washing", "setting": "[2]; beads washed, resuspended in PBST lacking protein for 24 h", "value": "almost identical"}, {"measurement": "retained SA-647 at 30% ligand density", "setting": "[2]; compound linked to only 30% of the sites on the beads, SA-647 500 nM", "value": "almost undetectable above background"}, {"measurement": "dependence of SA-647 retention on ligand density", "setting": "[2]; site functionalization 100% to 5%, SA-647 500 nM", "value": "strongly density-dependent"}, {"measurement": "binding of SA-647 to bead-displayed compound at low protein concentration", "setting": "[3]", "value": "above background binding was readily detectable"}, {"measurement": "dose-dependent binding of SA-647 (MFI by flow cytometer)", "setting": "SA-647", "value": "dose-dependent binding"}, {"measurement": "retention of SA-647 preincubated with excess biotin", "setting": "[4]", "value": "ablated retention"}]}]}
